Values belong to the molecule of their own block, whether it stands above or below them.
Key:
Format in all cases: physicochemical
[1] = FMOC-SER-OH / FMOC-ARG-OH reaction with D,L-lactide monomers in NMP at 25° C., HPLC; conditions: 25% D,L-lactide in NMP
Description: All impurity structures identified have polymers reacting with the arginine group of the peptide. In the present invention, it is shown that the conjugates of lactide monomers reacting with the serine group of the peptide are the more significant impurities generated, that were not observed previously. To test the generation of leuprolide conjugates with lactide monomers, FMOC-ARG-OH or FMOC-SER-OH was dissolved in NMP. To this solution D,L-lactide monomers were added. The solution was mixed well by vortexing. 5 uL of the solution was added to an HPLC vial with 0.5 mL of acetonitrile and 0.5 mL stability buffer (0.6% TEA/0.3% H3PO4 in water, pH=3.0). The sample was then analyzed by HPLC. The remaining solutions were stored in a glass vial at 25° C. Samples were taken at specified time points and analyzed by UPLC.

[2] = Octreotide mesylate with excess methane sulfonic acid in solvent with added lactide monomer; conditions: pH of the salt solution 2.4, pharmaceutically acceptable solvent
Description: U.S. Pat. No. 8,343,513 further discloses that in order to reduce the impurities generation, low molecular weight polymers with high acid numbers and significant amount of low pKa acid additives or oligomers have to be used. Such acidic dispersed phases are not suitable for human parenteral use due to tissue irritation from the low pH. […] In fact more impurities are generated for the solution with excess acid than the one without.

[3] = L-lactide monomer impurity generation with leuprolide mesylate in NMP, HPLC; conditions: NMP with 10% L-lactide, 3 hours at 37° C.

- impurities generated with D,L-lactide monomers ([1]; 3 hours at 25° C.): very little impurities
- impurities generated with D,L-lactide monomers ([1]; 1 day at 25° C.): significant amount of impurities
Molecule: O=C(N[C@@H](CO)C(=O)O)OCC1c2ccccc2-c2ccccc21 [FMOC-SER-OH]

Molecule: octreotide mesylate
- stability of the peptide with added lactide monomer [2]: highly unstable

- impurities generated with D,L-lactide monomers ([1]; 1 day at 25° C.): less than that seen with the serine
Molecule: NC(N)=NCCC[C@H](NC(=O)OCC1c2ccccc2-c2ccccc21)C(=O)O [FMOC-ARG-OH]

Molecule: leuprolide mesylate [LAMS]
- lactide-related impurity peak shape in chromatogram [3]: single peak

Source: patent US20220160817A1, “Pharmaceutical composition with improved stability” (Foresee Pharmaceuticals Co., Ltd., priority 2014, published 2022)
